According to patent US20080063668A1, “Nitroimidazole and terconazole composition and method” (priority 2006, published 2008):

Experiments:
[1] = test system: Mobiluncus curtisii var. holmesii ATCC 35242; test: Inhibition of bacteria growth, drug dilution tubes, anaerobic; assay type: cell-based; design: key: (+) for growth; (−) for no growth; (±) for suboptimal growth after an initial observation of growth
Method: Serial dilutions of tinidazole and terconazole were prepared by adding measured amounts of each substance to water (both individually and in combination). Seven bacterial organisms that are common pathogens in bacterial vaginosis were grown anaerobically in the medium as listed in Table 4 under a N2/H2/CO2 (85:5:10) head space atmosphere. [table] These cultures were diluted to a 0.5 McFarland standard prior to inoculation of drug dilution tubes. One (1) mL of the 0.5 McFarland preparation was inoculated to an anaerobically prepared test tube containing 0.8 mL of Difco anaerobic medium (DAMM) and 0.2 mL of appropriate diluted antimicrobial or antimicrobial combination for a total of 2 mL. The inoculated tubes were then incubated at 37° C. and monitored daily for growth. Growth was scored with a (+) for growth, (−) for no growth, and (±) for suboptimal growth after an initial observation of growth. Tinidazole is abbreviated as TNZ and terconazole is abbreviated as TER in Tables 5 through 11.

[2] = Solubilization of terconazole in water with acid (crystal observation); assay type: physicochemical
Method: Weighed amounts of terconazole were added to separate containers including an acid in water, applying heat, if necessary, to dissolve the terconazole. The amount of acid was selected to be about equimolar with the amount of terconazole added. After the terconazole was dissolved, each solution was cooled to about 4° C. to force crystallization of the terconazole. If crystals were not observed upon cooling, seed crystals of terconazole were then added and the solutions were again cooled to about 4° C. for about 72 hours. After allowing for crystal formation in all solutions, the solutions were allowed to warm to room temperature (about 20° C.).
Table 2 includes dissolution data for a number of compositions comprising varying amounts of terconazole and various acids. The data in Table 2 clearly indicate that solutions having a terconazole concentration of at least about 3 percent by weight and free from terconazole crystals at 20° C. were obtained utilizing tartaric acid and malic acid.

[3] = neutral pH; cited from earlier work
[4] = Solubilization of tinidazole in water with acid (crystal observation); assay type: physicochemical; conditions: 20° C., at least 14 days
Method: Weighed amounts of tinidazole were added to separate containers including an acid in water, applying heat, if necessary, to dissolve the tinidazole. The amount of acid was selected to be about equimolar with the amount of tinidazole added. After the tinidazole was dissolved, each solution was cooled to about 2° C. to force crystallization of some of the tinidazole. If crystals were not observed upon cooling, seed crystals of tinidazole were added. After crystal formation was observed, the solutions were allowed to warm to room temperature (about 20° C.). […] The absence of crystals after 14 days indicates effective dissolution of tinidazole. Table 1 includes dissolution data for a number of compositions comprising varying amounts of tinidazole and various acids. The data in Table 1 clearly indicate that solutions having a tinidazole concentration of at least about 0.5 percent by weight and free from tinidazole crystals at 20° C. were obtained utilizing citric acid, hydrochloric acid, acetic acid, tartaric acid, and malic acid. Tinidazole concentrations as high as about 0.55 percent by weight were obtained utilizing tartaric acid and citric acid.

[5] = Combined solubilization of tinidazole and terconazole in water with citric acid; assay type: physicochemical; conditions: 20° C., terconazole about 0.8 percent by weight
Method: Weighed amounts of tinidazole and terconazole were added to separate containers including citric acid in water, applying heat, if necessary, to dissolve the tinidazole and terconazole. The amount of citric acid was selected to be about equimolar with the molar amount of tinidazole and terconazole added. After the tinidazole and terconazole was dissolved, each solution was cooled to about 4° C. to force crystallization of the tinidazole and terconazole. If crystals were not observed upon cooling, seed crystals of tinidazole were added and the solutions were again cooled to about 4° C. […] The absence of crystals after 14 days indicates effective dissolution of tinidazole and terconazole. Table 3 includes dissolution data for a number of compositions comprising varying amounts of tinidazole, terconazole and citric acid. The data in Table 3 clearly indicate that solutions having a tinidazole concentration of at least about 0.6 percent by weight and a terconazole concentration of about 0.8 percent by weight and free from crystals at 20° C. were obtained utilizing citric acid.

For `CC(C)N1CCN(c2ccc(OCC3COC(Cn4cncn4)(c4ccc(Cl)cc4Cl)O3)cc2)CC1` (stereo not drawn) [TER, cis-1-[p[[2-(2,4-dichlorophenyl)-2-(1 H-1,2,4-triazol-1-ylmethyl)-1,3-dioxolan-4-yl]methoxy]phenyl]-4-isopropylpiperazine], the growth ([1]; TER 3.1 μg/ml, DAY 1) was “(+)”, the growth ([1]; TER 3.1 μg/ml, DAY 2) was “(+)” and the growth ([1]; TER 3.1 μg/ml, DAY 3) was “(+)”. The growth ([1]; TER 3.1 μg/ml, DAY 4) was “(+)”, the growth ([1]; TER 3.1 μg/ml, DAY 5) was “(+)” and the growth ([1]; TER 6.2 μg/ml, DAY 1) was “(+)”. For the same molecule, the growth ([1]; TER 6.2 μg/ml, DAY 2) was “(+)”, the growth ([1]; TER 6.2 μg/ml, DAY 3) was “(+)” and the growth ([1]; TER 6.2 μg/ml, DAY 4) was “(+)”. The growth ([1]; TER 6.2 μg/ml, DAY 5) was “(+)”, the growth ([1]; TER 12.5 μg/ml, DAY 1) was “(+)” and the growth ([1]; TER 12.5 μg/ml, DAY 2) was “(+)”. The growth ([1]; TER 12.5 μg/ml, DAY 3) was “(+)”, the growth ([1]; TER 12.5 μg/ml, DAY 4) was “(+)” and the growth ([1]; TER 12.5 μg/ml, DAY 5) was “(+)”. The growth ([1]; TER 25 μg/ml, DAY 1) was “(+)”, the growth ([1]; TER 25 μg/ml, DAY 2) was “(+)” and the growth ([1]; TER 25 μg/ml, DAY 3) was “(+)”. For the same molecule, the growth ([1]; TER 25 μg/ml, DAY 4) was “(+)”, the growth ([1]; TER 25 μg/ml, DAY 5) was “(+)” and the growth ([1]; TER 50 μg/ml, DAY 1) was “(+)”. The growth ([1]; TER 50 μg/ml, DAY 2) was “(+)”, the growth ([1]; TER 50 μg/ml, DAY 3) was “(+)” and the growth ([1]; TER 50 μg/ml, DAY 4) was “(+)”. For the same molecule, the growth ([1]; TER 50 μg/ml, DAY 5) was “(+)”, the growth ([1]; TER 100 μg/ml, DAY 1) was “(+)” and the growth ([1]; TER 100 μg/ml, DAY 2) was “(+)”. The growth ([1]; TER 100 μg/ml, DAY 3) was “(+)”, the growth ([1]; TER 100 μg/ml, DAY 4) was “(+)” and the growth ([1]; TER 100 μg/ml, DAY 5) was “(+)”. For the same molecule, the growth ([1]; TER 200 μg/ml, DAY 1) was “(+)”, the growth ([1]; TER 200 μg/ml, DAY 5) was “(+)” and the growth ([1]; TER 400 μg/ml, DAY 1) was “(+)”. The growth ([1]; TER 400 μg/ml, DAY 5) was “(+)”, the growth ([1]; TER 800 μg/ml, DAY 1) was “(+)” and the growth ([1]; TER 800 μg/ml, DAY 5) was “(+)”. The “terconazole concentration of solutions free from terconazole crystals” value ([2]; 20° C., about 14 days, tartaric acid and malic acid) was “at least 3 percent by weight”, the terconazole solubilized ([2]; citric acid, separate study) was 2.4 percent by weight and the “solubility in water (in words)” value [3] was “substantially insoluble”.

With `CCS(=O)(=O)CCn1c([N+](=O)[O-])cnc1C` [TNZ, 1-[2-(ethylsulfonyl)ethyl]-2-methyl-5-nitroimidazole] the growth ([1]; TNZ 2 μg/ml, DAY 1) was “(+)”, the growth ([1]; TNZ 2 μg/ml, DAY 2) was “(+)” and the growth ([1]; TNZ 2 μg/ml, DAY 3) was “(+)”. The growth ([1]; TNZ 2 μg/ml, DAY 4) was “(+)”, the growth ([1]; TNZ 2 μg/ml, DAY 5) was “(+)” and the growth ([1]; TNZ 3.9 μg/ml, DAY 1) was “(+)”. The growth ([1]; TNZ 3.9 μg/ml, DAY 2) was “(+)”, the growth ([1]; TNZ 3.9 μg/ml, DAY 3) was “(+)” and the growth ([1]; TNZ 3.9 μg/ml, DAY 4) was “(+)”. For the same molecule, the growth ([1]; TNZ 3.9 μg/ml, DAY 5) was “(+)”, the growth ([1]; TNZ 7.8 μg/ml, DAY 1) was “(+)” and the growth ([1]; TNZ 7.8 μg/ml, DAY 2) was “(+)”. For the same molecule, the growth ([1]; TNZ 7.8 μg/ml, DAY 3) was “(+)”, the growth ([1]; TNZ 7.8 μg/ml, DAY 4) was “(+)” and the growth ([1]; TNZ 7.8 μg/ml, DAY 5) was “(+)”. The growth ([1]; TNZ 15.6 μg/ml, DAY 1) was “(+)”, the growth ([1]; TNZ 15.6 μg/ml, DAY 2) was “(+)” and the growth ([1]; TNZ 15.6 μg/ml, DAY 3) was “(+)”. For the same molecule, the growth ([1]; TNZ 15.6 μg/ml, DAY 4) was “(+)”, the growth ([1]; TNZ 15.6 μg/ml, DAY 5) was “(+)” and the growth ([1]; TNZ 31.3 μg/ml, DAY 1) was “(+)”. For the same molecule, the growth ([1]; TNZ 31.3 μg/ml, DAY 2) was “(+)”, the growth ([1]; TNZ 31.3 μg/ml, DAY 3) was “(+)” and the growth ([1]; TNZ 31.3 μg/ml, DAY 4) was “(+)”. For the same molecule, the growth ([1]; TNZ 31.3 μg/ml, DAY 5) was “(+)”, the growth ([1]; TNZ 62.5 μg/ml, DAY 1) was “(+)” and the growth ([1]; TNZ 62.5 μg/ml, DAY 2) was “(+)”. The growth ([1]; TNZ 62.5 μg/ml, DAY 3) was “(+)”, the growth ([1]; TNZ 62.5 μg/ml, DAY 4) was “(+)” and the growth ([1]; TNZ 62.5 μg/ml, DAY 5) was “(+)”. The growth ([1]; TNZ 125 μg/ml, DAY 1) was “(+)”, the growth ([1]; TNZ 125 μg/ml, DAY 2) was “(+)” and the growth ([1]; TNZ 125 μg/ml, DAY 3) was “(+)”. For the same molecule, the growth ([1]; TNZ 125 μg/ml, DAY 4) was “(+)”, the growth ([1]; TNZ 125 μg/ml, DAY 5) was “(+)” and the growth ([1]; TNZ 250 μg/ml, DAY 1) was “(+)”. For the same molecule, the growth ([1]; TNZ 250 μg/ml, DAY 2) was “(+)”, the growth ([1]; TNZ 250 μg/ml, DAY 3) was “(+)” and the growth ([1]; TNZ 250 μg/ml, DAY 4) was “(+)”. For the same molecule, the growth ([1]; TNZ 250 μg/ml, DAY 5) was “(+)”, the growth ([1]; TNZ 500 μg/ml, DAY 1) was “(+)” and the growth ([1]; TNZ 500 μg/ml, DAY 2) was “(+)”. The growth ([1]; TNZ 500 μg/ml, DAY 3) was “(+)”, the growth ([1]; TNZ 500 μg/ml, DAY 4) was “(+)” and the growth ([1]; TNZ 500 μg/ml, DAY 5) was “(+)”. For the same molecule, the “tinidazole concentration of solutions free from tinidazole crystals” value ([4]; citric acid, hydrochloric acid, acetic acid, tartaric acid, and malic acid, about equimolar) was “at least 0.5 percent by weight”, the “tinidazole concentration of solutions free from tinidazole crystals” value ([4]; tartaric acid and citric acid) was “about 0.55 percent by weight” and the “tinidazole concentration of solutions free from crystals” value [5] was “at least 0.6 percent by weight”. For the same molecule, the solubility in water [3] was “about 0.45 percent by weight”.
